Reference: patent US8575107B2, “Clusterin derived peptide” (Compugen Ltd., priority 2008, dated 2013)

Key:
[1] = system: MCF-7 breast cancer cell lines; assay: MTT assay, CGEN-CL1 and/or paclitaxel on MCF-7 cells; assay type: cell-based
Method: (§1) 20 μl of MTT (3-(4,5-Dimethyl-2-thiazolyl)-2,5-diphenyl-2H-tetrazolium bromide) solution (Sigma Cat#M5655, lot#085k5322, 1 gr was dissolved in 200 ml H2O and filtered, giving a final concentration of 5 mg/ml) was added to each well and incubated for 4 hours at 37° C. after which the medium was vacuumed and 100 μl of DMSO was added to each well. Absorbance was measured in an ELISA reader at 492 nm.
(§2) A549, PC3 and MCF7 cells were seeded at 6000, 8000 and 10,000 cells per well respectively in 150 μl of media (DMEM medium+5% FBS) in 96 well plates.
(§3) Paclitaxel (Sigma T7402, Lot. 036k1217, Mw 853.9, 5 mg dissolved in 585 μl DMSO to a stock concentration of 10 mM, stored at −20° C.) and/or CGEN-CL1 (1 mg dissolved in 250 μl of sodium bi-carbonate to a stock concentration of 4 mg/ml) were added to the wells in 25 μl of medium (final volume of 200 μl) as detailed in Table 3. The relative growth was normalized to controls where neither paclitaxel nor CGEN-CL1 was added to wells.
(§4) An MTT assay was performed as described above in Example 2.

[2] = system: lung carcinoma cell line A549; assay: MTT assay, CGEN-CL1 and/or paclitaxel on A549 cells; assay type: cell-based, human; settings: single agent
Method: as §1, §2, §3, §4

CC(=O)O[C@H]1C(=O)[C@@]2(C)[C@H]([C@H](OC(=O)c3ccccc3)[C@]3(O)C[C@H](OC(=O)[C@H](O)[C@@H](NC(=O)c4ccccc4)c4ccccc4)C(C)=C1C3(C)C)[C@]1(OC(C)=O)CO[C@@H]1C[C@@H]2O [Paclitaxel, reference compound]
Relative Growth ([1]; Paclitaxel 2.25 nM alone): 0.88
Relative Growth ([1]; Paclitaxel 30.00 nM alone): 0.49
maximal effect (inhibition) alone [2]: 50%
